# Measured values reported in patent US10849867B2, “Methods and compositions for treating conditions associated with an abnormal inflammatory response” (First Wave Bio, Inc., priority 2015, dated 2020).
# Experiments:
# [1] = Colon concentration in mice compared with uncoupling concentration (Example 6); type: in vivo
# Procedure: Model. Results from Examples 2 and 5 are used together. […] This concentration is directly compared to the dose-response data to determine if efficacious exposure is sufficient to induce mitochondrial uncoupling in colon.
# Pharmacokinetic study design.
# Calculation of target coverage. The average area under the colon concentration versus time curve (AUC) and the peak concentration is calculated and is plotted and is graphed.
# [2] = tested on: TNBS-induced colitis; test: TNBS colitis in mice, niclosamide suspension administered rectally as enema (Example 9); type: in vivo, male Balb/c mice
# Source text: Model: Intra-rectal administration of trinitrobenzene sulfonic acid (TNBS) to mice results in colitis. TNBS elicits cell-mediated immune responses and induces transmural inflammation in the gut with morphological and histopathological features similar to those of human inflammatory bowel disease. TNBS induces diffuse colonic inflammation, characterized by increased leukocyte infiltration, edema, and ulceration. It is very well reported that administration of TNBS is associated with predominant activation of Th1-mediated immune response manifested by increased cytokines such as interferon-γ (IFN-γ), tumor necrosis factor-α (TNF-α) and interleukin-17A (IL-17A) as well as dense infiltration of CD4+ T cells. Disease activity in the TNBS model can be determined by loss of body weight, histopathological evaluation of the colon showing evidence of inflammatory damage and evidence of pro-inflammatory cytokines detected in colon tissue. Animals and Treatments: Studies of TNBS colitis were performed in 8- to 12-week-old male Balb/c mice (Jackson Laboratories, stock number 000651). […] Weight changes were recorded daily and tissues were collected for histologic study and RNA analysis at the end of the study. […] Gene expression was calculated using the ΔΔCt algorithm.
# [3] = tested on: human LPMCs T cells; test: Pro-inflammatory cytokine producing LPMC T cells, intracellular staining flow cytometry (Example 10); type: cell-based; conditions: 5 μM, 24 h, relative to vehicle only negative control
# Source text: Model: Lamina propria mononuclear cells (LPMC) in the human intestine are comprised in part by T cells which mediate pathological processes including inflammatory bowel disease. LPMCs can be isolated from human intestine tissue biopsies. After isolation […] cells remain viable ex vivo under appropriate culture conditions for periods of time that allow ex vivo experiments. These cells can be used to investigate if test agents affect their production of pro-inflammatory cytokines including interferon-gamma (IFN), tumor necrosis factor-alpha (TNF) and interleukin 17A (IL-17A), to determine if a test agent affects the pro-inflammatory cytokines that mediate inflammatory bowel disease, including UC. Cell Isolation and Culture: Cells were obtained from colon biopsy specimens of a human from areas with moderate to severe UC. For the isolation of lamina propria mononuclear […] specimens were initially washed in Hank's balanced salt solution (HBSS) then cut into 0.5-cm pieces, and incubated with stirring in pre-warmed HBSS containing 1 mM DTT at 37° C. for 15 minutes. The supernatant was removed and the sample washed with stirring with HBSS for 5 minutes twice. Samples were incubated with stirring in pre-warmed HBSS containing 5 mM EDTA for 30 minutes. The supernatant was removed and the sample washed with stirring with HBSS for 5 minutes three times. The tissue was then digested further in RPMI 1640 containing 2 mg/ml Liberase and 0.01 ug/ml DNase I for 1 hours at 37° C. with stirring. After digestion, the mononuclear cells in suspension were collected and centrifuged at 400 g for 10 minutes. After two washings in HBS, the pellet was resuspended in a 40% Percoll solution and layered on the top of a Percoll solution (100%, 60%, 40%, and 30% Percoll in HBSS). The tube was centrifuged at 400 g for 25 minutes, and LPMCs at the 60%-40% Percoll layer interface were collected. The isolated cells were counted and checked for viability using 0.1% trypan blue (viability ranged from 86% to 94%). […]
compound,measurement,setting,value
"O=C(Nc1ccc([N+](=O)[O-])cc1Cl)c1cc(Cl)ccc1O [Niclosamide, 5-chloro-N-(2-chloro-4-nitrophenyl)-2-hydroxybenzamide]",concentration in the colon,[1]; single rectal dose 1 mg/kg (below maximal efficacy),< 5 µM
same,colon peak concentration,[1]; single rectal dose 3 mg/kg (therapeutic dosage),> 5 µM
same,body weight,"[2]; rectal 30 mg/kg on days 1 and 2, TNBS-induced colitis",recovery of body weight
same,colitis score (H&E analysis of colon biopsies),"[2]; rectal 30 mg/kg on days 1 and 2, compared to vehicle control or TNBS only",significantly lower
same,human LPMCs T cells that produce IFN,[3],decrease
same,human LPMCs T cells that produce IL-17A,[3],decrease
same,human LPMCs T cells that produce TNF,[3],decrease
